Experiments:
HCT116 p53 -/- = assay: MTT cytotoxicity assay; format: cell-based; details: Homo sapiens, HCT-116, 48 h
Procedure: (§1) Cells were seeded in 96 well plates. At about70 % confluency, they were treated with different concentrations of drugs either individually or in combination. After 48 h, MTT assay was done (Mossmann 1983) and absorbance was measured at 570 nm (Biorad Microplate reader). Percentage viability was plotted against the respective concentrations of the drugs and half inhibitory concentration (IC50) was calculated with the non linear regression programme of Origin.

HCT116 [1] = assay: MTT cytotoxicity assay; format: cell-based; details: Homo sapiens, HCT-116, HCT116, 48 h
Procedure: as §1

HT 29 = assay: MTT cytotoxicity assay; format: cell-based; details: Homo sapiens, HT 29, 48 h
Procedure: as §1

SW 480 = assay: MTT cytotoxicity assay; format: cell-based; details: Homo sapiens, SW480, SW 480, 48 h
Procedure: as §1

SW 620 = assay: MTT cytotoxicity assay; format: cell-based; details: Homo sapiens, SW 620, 48 h
Procedure: as §1

Caco 2 = assay: MTT cytotoxicity assay; format: cell-based; details: Homo sapiens, Caco 2, 48 h
Procedure: as §1

Colo 320 DM [2] = assay: MTT cytotoxicity assay; format: cell-based; details: Homo sapiens, 48 h
Procedure: as §1

Caco2 = assay: DAPI staining for detection of apoptosis (chromatin condensation); format: cell-based; details: Caco2, approximately 1.5 times the IC50 concentration, 24 h
Procedure: (§2) The cells were grown on coverslips in 24 well plates and incubated with respective drug or inhibitor for 24 h. They were then washed with PBS, fixed with chilled methanol-EDTA for 10 min and rehydrated with PBS for 10 min at room temperature. Successively, the cells were treated with DAPI (0.5 μg/ml) for 2 min in the dark. The coverslips were then mounted on fluoromount G and viewed at 40X in the UV region using a fluorescence microscope (Olympus IX71).

Colo 320 DM [3] = assay: as above; format: cell-based; details: approximately 1.5 times the IC50 concentration, 24 h
Procedure: as §2

HCT116 p53 −/− = assay: as above; format: cell-based
Procedure: as §2

HCT116 [4] = assay: as above; format: cell-based
Procedure: as §2

[5] = test system: HCT116 p53 −/− xenograft tumours; assay: Colon cancer xenograft study; format: in vivo, SCID/NOD mice
Procedure: (§3) SCID/NOD mice were divided into groups of ten and allowed to acclimatize. After 5 days, tumours were raised by injecting HCT116 or HCT116 p53 −/− cells (1.5 × 10^5 cells suspended in PBS) subcutaneously in the inner flank region. Once the tumour volumes reached 20–80 mm^3, drug was administered intraperitoneally, thrice a week at different concentrations.

HCT116 xenograft tumours = assay: Colon cancer xenograft study; format: in vivo, SCID/NOD mice
Procedure: as §3

Swiss Albino mice [6] = assay: Acute toxicity study; format: in vivo; details: for Final weight: after 14 days; for Initial weight: before drug administration
Procedure: In acute toxicity studies, Swiss Albino mice were divided in to six groups of six animal each and DAT1 (12–50 mg/kg) was administered intraperitoneally (i.p) and observed for 14 days for signs of weight loss, dehydration or mortality. DAT1 was dissolved in vehicle cremaphor:ethanol (1:1) and diluted in 0.9 % saline.
Swiss Albino mice were divided into 6 groups of 6 mice each and were injected with either DAT1 or vehicle intraperitoneally. […] Group I: 12mg/kg, Group II: 20 mg/kg, Group III: 30 mg/kg, Group IV: 40 mg/kg, Group V: 50 mg/kg

Swiss Albino mice [7] = assay: Sub-acute toxicity study; format: in vivo; details: for RBC / WBC / ALP / ALT / AST / BUN / Creatinine: 3 months; for ALP / ALT / AST / BUN / Creatinine: serum
Procedure: In sub-acute toxicity studies, Swiss albino mice were divided into five groups of eight animals each. Three groups of Swiss Albino mice were administered (i.p injection) with 4, 8 or 16 mg/kg DAT1, and the control and vehicle control groups were administered with 0.9 % saline or vehicle respectively. Injections were given every alternate day for the first 10 days and after that, twice weekly for a period of 3 months. After 3 months animals were sacrificed and whole blood, liver and kidney were collected. Hematotoxicity was checked by RBC and WBC count. Hepatotoxicity was measured by monitoring the serum ALT and AST levels. Nephrotoxicity was measured by monitoring BUN and creatinine levels in the serum. ALP activity was measured for detection of liver or bone toxicity.

DR5 = DR5 induction by western blotting; format: cell-based; details: cells with non functional p53 (HCT116 p53 −/−, SW620, SW480, HT29), ~1.5 X IC50
Procedure: (§4) Cells were grown to 70–80 % confluency in 60 mm culture dishes. After drug treatment, they were harvested and lysed. Protein samples from tissues were collected by homogenizing the tissue in the presence of lysis buffer, followed by centrifugation for 20 min. The protein samples were run in a 10–12 % gel and transferred on to a PVDF membrane. The membranes were probed with specific primary antibodies (1:1000) overnight followed by secondary antibodies conjugated with horse radish peroxidase/alkaline phosphatase (1:2000) for 1 hr at room temperature and were developed by chemiluminescence or alkaline phosphatase method.

ERK = ERK activation by western blotting; format: cell-based
Procedure: as §4

caspase 8 = assay: Caspase 8 activation by western blotting; format: cell-based; details: cell lines irrespective of their p53 status
Procedure: as §4

SMILES: O=c1[nH]cc(F)c(=O)[nH]1 [5 fluoro uracil, 5-fluorouracil]
- IC50 (HCT116 p53 -/-): 19300 ± 1340 nM
- IC50 (HCT116 [1]): 8690 ± 540 nM
- IC50 (HT 29): 20200 ± 770 nM
- IC50 (SW 480): 18600 ± 680 nM
- IC50 (SW 620): 9650 ± 330 nM

SMILES: COc1ccc(Nc2nc(N)c(C(=O)c3ccccc3)s2)cc1 [DAT1, 4-Amino-5-benzoyl-2-(4-methoxyphenylamino)thiazole]
- IC50 (Caco 2): 5320 ± 162 nM
- IC50 (Colo 320 DM [2]): 655 ± 48 nM
- IC50 (HCT116 p53 -/-): 709 ± 80 nM
- IC50 (HCT116 [1]): 300 ± 80 nM
- IC50 (HT 29): 200 ± 80 nM
- IC50 (SW 480): 795 ± 90 nM
- IC50 (SW 620): 420 ± 70 nM
- apoptosis (chromosome condensation) (Caco2): 32%
- apoptosis (chromosome condensation) (Colo 320 DM [3]): 38%
- percentage of apoptotic cells (HCT116 p53 −/−; DAT1 alone, 24 h): 60%
- percentage of apoptotic cells (HCT116 p53 −/−; DAT1 in the presence of MEK inhibitor U0126): 5%
- percentage of apoptotic cells (HCT116 [4]; HCT116, DAT1 alone, 24 h): 67%
- percentage of apoptotic cells (HCT116 [4]; HCT116, DAT1 in the presence of MEK inhibitor U0126): 3%
- reduction in tumour inhibition vs parental HCT116 ([5]; 20 mg/kg): about 19%
- tumour inhibition ([5]; HCT116 p53 −/− tumours, 20 mg/kg i.p., thrice a week, 28 days): 53.4%
- mean tumour volume ([5]; HCT116 p53−/− xenograft, treatment for 28 days, i.p.): reduced the mean tumour volume effectively in a concentration dependent way
- tumour inhibition (HCT116 xenograft tumours; HCT116 tumours, 20 mg/kg i.p., thrice a week, 28 days): 72.3%
- mean tumour volume (HCT116 xenograft tumours; HCT116 xenograft, treatment for 28 days, i.p.): reduced the mean tumour volume effectively in a concentration dependent way
- Final weight (Swiss Albino mice [6]; 12 mg/kg i.p.): 33.1 ± 1.56 g
- Initial weight (Swiss Albino mice [6]; 12 mg/kg i.p.): 32.4 ± 1.34 g
- Final weight (Swiss Albino mice [6]; 20 mg/kg i.p.): 33.46 ± 3.87 g
- Initial weight (Swiss Albino mice [6]; 20 mg/kg i.p.): 32.8 ± 5.44 g
- Final weight (Swiss Albino mice [6]; 30 mg/kg i.p.): 29.86 ± 2.82 g
- Initial weight (Swiss Albino mice [6]; 30 mg/kg i.p.): 27.2 ± 1.22 g
- Final weight (Swiss Albino mice [6]; 40 mg/kg i.p.): 27.8 ± 2.67 g
- Initial weight (Swiss Albino mice [6]; 40 mg/kg i.p.): 26.6 ± 2.4 g
- Final weight (Swiss Albino mice [6]; 50 mg/kg i.p.): 26.12 ± 2.14 g
- Initial weight (Swiss Albino mice [6]; 50 mg/kg i.p.): 25.6 ± 2.03 g
- RBC (Swiss Albino mice [7]; 4 mg/kg i.p.): 4.42 ± 0.75 million/mm^3
- WBC (Swiss Albino mice [7]; 4 mg/kg i.p.): 8100 ± 1979 per mm^3
- ALP (Swiss Albino mice [7]; 4 mg/kg i.p.): 158.32 ± 8.32 U/L
- ALT (Swiss Albino mice [7]; 4 mg/kg i.p.): 54.38 ± 4.15 U/L
- AST (Swiss Albino mice [7]; 4 mg/kg i.p.): 128 ± 25.1 U/L
- BUN (Swiss Albino mice [7]; 4 mg/kg i.p.): 29.8 ± 1.25 mg/dL
- Creatinine (Swiss Albino mice [7]; 4 mg/kg i.p.): 0.82 ± 0.1 mg/dL
- RBC (Swiss Albino mice [7]; 8 mg/kg i.p.): 4.48 ± 0.34 million/mm^3
- WBC (Swiss Albino mice [7]; 8 mg/kg i.p.): 6220 ± 1626.34 per mm^3
- ALP (Swiss Albino mice [7]; 8 mg/kg i.p.): 136.48 ± 10.69 U/L
- ALT (Swiss Albino mice [7]; 8 mg/kg i.p.): 53.845 ± 4.81 U/L
- AST (Swiss Albino mice [7]; 8 mg/kg i.p.): 128.165 ± 1.87 U/L
- Creatinine (Swiss Albino mice [7]; 8 mg/kg i.p.): 0.76 ± 0.07 mg/dL
- RBC (Swiss Albino mice [7]; 16 mg/kg i.p.): 4.475 ± 0.26 million/mm^3
- WBC (Swiss Albino mice [7]; 16 mg/kg i.p.): 4550 ± 264.575 per mm^3
- ALP (Swiss Albino mice [7]; 16 mg/kg i.p.): 155.61 ± 15.15 U/L
- ALT (Swiss Albino mice [7]; 16 mg/kg i.p.): 148.39 ± 14.55 U/L
- AST (Swiss Albino mice [7]; 16 mg/kg i.p.): 162.67 ± 12.73 U/L
- BUN (Swiss Albino mice [7]; 16 mg/kg i.p.): 29.8 ± 1.27 mg/dL
- Creatinine (Swiss Albino mice [7]; 16 mg/kg i.p.): 0.58 ± 0.09 mg/dL
- body weight change (Swiss Albino mice [7]; 4, 8 or 16 mg/kg i.p., end of 3 months): no significant change in the weight
- DR5 upregulation (DR5): caused DR5 upregulation
- ERK activation (ERK; Colo 320 DM or Caco2 cell lines with wild type Ras or Raf, ~1.5 times IC50): unable to activate ERK
- P-ERK activation (ERK; HCT116 and HCT116 p53−/− cells): caused P-ERK activation
- caspase 8 activation (caspase 8): caused caspase 8 activation

SMILES: CC(=O)O[C@H]1C(=O)[C@@]2(C)[C@H]([C@H](OC(=O)c3ccccc3)[C@]3(O)C[C@H](OC(=O)[C@H](O)[C@@H](NC(=O)c4ccccc4)c4ccccc4)C(C)=C1C3(C)C)[C@]1(OC(C)=O)CO[C@@H]1C[C@@H]2O [Taxol, paclitaxel]
- IC50 (HCT116 p53 -/-): 6 ± 2 nM
- IC50 (HCT116 [1]): 14 ± 7 nM
- IC50 (HT 29): 10 ± 1.4 nM
- IC50 (SW 480): 31.5 ± 1.4 nM
- IC50 (SW 620): 24.5 ± 6 nM

SMILES: CC[C@]1(O)C[C@@H]2CN(CCc3c([nH]c4ccccc34)[C@@](C(=O)OC)(c3cc4c(cc3OC)N(C)[C@H]3[C@@](O)(C(=O)OC)[C@H](OC(C)=O)[C@]5(CC)C=CCN6CC[C@]43[C@@H]65)C2)C1 [Vinblastine]
- IC50 (HCT116 p53 -/-): 19.5 ± 0.7 nM
- IC50 (HCT116 [1]): 4 ± 2 nM
- IC50 (HT 29): 1.5 ± 0.7 nM
- IC50 (SW 480): 3380 ± 247 nM
- IC50 (SW 620): 300 ± 90 nM
- apoptosis induction (HCT116 p53 −/−; 0.01 μM, 24 h): failed to induce apoptosis
- apoptosis induction (HCT116 [4]; HCT116 p53 wild type, 0.01 μM, 24 h): large apoptotic response

Source: publication PMC4782294, “ERK mediated upregulation of death receptor 5 overcomes the lack of p53 functionality in the diaminothiazole DAT1 induced apoptosis in colon cancer models: efficiency of DAT1 in Ras-Raf mutated cells” (Molecular Cancer, 2016)
